Patent publication US9493441B2, “Acyclic cyanoethylpyrazoles as janus kinase inhibitors” (Merck Sharp & Dohme Corp., priority 2011, dated 2016)
Where two headings read alike, the source gives them in different places.

Legend:
JAK1 = JAK1 (Homo sapiens (Human), UniProt P23458); assay: Jak biochemical HTRF assay, JAK1
JAK2 = JAK2 (Homo sapiens (Human), UniProt O60674); assay: Jak biochemical HTRF assay, JAK2
[1] = JAK1 IC50 (nM), recombinant GST-tagged catalytic domain, [ATP] 31.8 μM
[2] = JAK2 IC50 (nM), recombinant GST-tagged catalytic domain, [ATP] […]
[3] = read-out: JAK1 IC50, recombinant GST-tagged catalytic domain, [ATP] 31.8 μM
[4] = read-out: JAK2 IC50, recombinant GST-tagged catalytic domain, [ATP] […]

Chain of JAK1 (P23458 875-1153): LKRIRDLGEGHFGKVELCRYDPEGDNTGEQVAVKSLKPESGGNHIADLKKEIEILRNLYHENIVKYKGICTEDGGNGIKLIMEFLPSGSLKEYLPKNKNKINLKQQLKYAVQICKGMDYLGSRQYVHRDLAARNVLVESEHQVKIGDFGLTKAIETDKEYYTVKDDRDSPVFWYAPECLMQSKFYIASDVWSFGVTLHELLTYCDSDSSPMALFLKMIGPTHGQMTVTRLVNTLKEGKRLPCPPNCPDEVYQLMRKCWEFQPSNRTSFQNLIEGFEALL
Chain of JAK2 (O60674 849-1124): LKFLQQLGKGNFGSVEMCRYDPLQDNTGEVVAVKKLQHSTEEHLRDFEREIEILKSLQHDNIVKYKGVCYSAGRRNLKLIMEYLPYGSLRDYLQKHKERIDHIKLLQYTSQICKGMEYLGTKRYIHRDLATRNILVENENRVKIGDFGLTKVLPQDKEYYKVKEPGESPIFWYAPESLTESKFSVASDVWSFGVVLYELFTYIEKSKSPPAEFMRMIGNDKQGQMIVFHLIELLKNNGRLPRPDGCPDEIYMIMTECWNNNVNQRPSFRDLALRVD

SMILES | IC50 (JAK1; [1]) [nM] | IC50 (JAK2; [2]) [nM] | IC50 (JAK1; [3]) [nM] | IC50 (JAK2; [4]) [nM]
Cc1nnc(-c2ccc(Nc3nn(C(CC#N)C4CC4)cc3C(N)=O)cc2)o1 (centres unmarked) [Example 4-25, 1-(2-cyano-1-cyclopropylethyl)-3-{[4-(5-methyl-1,3,4-oxadiazol-2-yl)phenyl]amino}-1H-pyrazole-4-carboxamide] | 42 | 221 | – | –
C[C@H](CC#N)n1cc(C(N)=O)c(Nc2ccccc2)n1 (single isomer, unassigned) [Example 17-2, 1-[(2S or 2R)-1-cyanopropan-2-yl]-3-(phenylamino)-1H-pyrazole-4-carboxamide] | – | – | 47 | 469
Cc1c(Cl)ncnc1N1CCC([C@H](CC#N)n2cc(C(N)=O)c(Nc3ccc(F)cc3)n2)CC1 [Example 13, 1-{(1S)-1-[1-(6-Chloro-5-methylpyrimidin-4-yl)piperidin-4-yl]-2-cyanoethyl}-3-[(4-fluorophenyl)amino]-1H-pyrazole-4-carboxamide] | 823 | 1500 | – | –
C[C@@H](C#N)[C@H](C)n1cc(C(N)=O)c(Nc2ccccc2)n1 (mixture of isomers) [Example 1-23, 1-((2S, 3R and 2R, 3S)-3-cyclobutan-2-yl)-3-(phenylamino)-1H-pyrazole-4-carboxamide] | 123 | 413 | – | –
CN(C)C(=O)c1ccc(Nc2nn(C(CC#N)C3CC3)cc2C(N)=O)cc1 (centres unmarked) [Example 4-22, 1-(2-cyano-1-cyclopropylethyl)-3-{[4-(dimethylcarbamoyl)phenyl]amino}-1H-pyrazole-4-carboxamide] | 3 | 16 | – | –
CC(C)(C)OC(=O)N1CCC(C(CC#N)n2cc(C(N)=O)c(Nc3ccc(F)cc3)n2)CC1 (single isomer, unassigned) [Example 14-3, tert-butyl 4-[(1S or 1R)-1-{4-carbamoyl-3-[(4-fluorophenyl)amino]-1H-pyrazol-1-yl}-2-cyanoethyl)piperidine-1-carboxylate] | 92 | 903 | – | –
CN(C)CCOC(=O)N1CCC([C@H](CC#N)n2cc(C(N)=O)c(Nc3ccc(F)cc3)n2)CC1 (stereo in doubt) [Example 11-1, 2-(Dimethylamino)ethyl 4-(1-{4-carbamoyl-3-[(4-fluorophenyl)amino]-1H-pyrazol-1-yl}-2-cyanoethyl)piperidine-1-carboxylate] | 959 | 1500 | – | –
COCC(C)OC(=O)N1CCC([C@H](CC#N)n2cc(C(N)=O)c(Nc3ccc(F)cc3)n2)CC1 (stereo partly drawn) [Example 11-9, 2-methoxy-1-methylethyl 4-[(1S)-1-{4-carbamoyl-3-[(4-fluorophenyl)amino]-1H-pyrazol-1-yl}-2-cyanoethyl]piperidine-1-carboxylate] | 108 | 1030 | – | –
CS(=O)(=O)CCOC(=O)N1CCC(C(CC#N)n2cc(C(N)=O)c(Nc3ccc(F)cc3)n2)CC1 (centres unmarked) [Example 11-3, 2-(methylsulfonyl)ethyl 4-(1-{4-carbamoyl-3-[(4-fluorophenyl)amino]-1H-pyrazol-1-yl}-2-cyanoethyl)piperidine-1-carboxylate] | 122 | 1500 | – | –
CC(CC#N)n1cc(C(N)=O)c(Nc2ccc(C(=O)N3CCS(=O)(=O)CC3)cc2)n1 (centres unmarked) [Example 1-16, 1-(2-cyano-1-methylethyl)-3-({4-[(1,1-dioxidothiomorpholin-4-yl)carbonyl]phenyl}amino)-1H-pyrazole-4-carboxamide] | 19 | 45 | – | –
CC[C@H](CC#N)n1cc(C(N)=O)c(Nc2ccccc2)n1 (single isomer, unassigned) [Example 16-1, 1-[(1R or 1S)-1-(cyanomethyl)propyl]-3-(phenylamino)-1H-pyrazole-4-carboxamide] | – | – | 43 | 578
CC(C)(C)OC(=O)N1Cc2cc(Nc3nn(C(CC#N)C4CC4)cc3C(N)=O)ccc2C1=O (centres unmarked) [Example 4-2, tert-butyl 5-{[4-carbamoyl-1-(2-cyano-1-cyclopropylethyl)-1H-pyrazol-3-yl]amino}-1-oxo-1,3-dihydro-2H-isoindole-2-carboxylate] | 2 | 35 | – | –
N#CCC(C1CC1)n1cc(C(N)=O)c(Nc2ccc3c(c2)CCS3(=O)=O)n1 (centres unmarked) [Example 5, 1-(2-Cyano-1-cyclopropylethyl)-3-[(1,1-dioxido-2,3-dihydro-1-benzothiophen-5-yl)amino]-1H-pyrazole-4-carboxamide] | 1 | 15 | – | –
